According to patent US10844077B2, “Thiazolyl-containing compounds for treating proliferative diseases” (Dana-Farber Cancer Institute, Inc., priority 2014, dated 2020):
Read-outs that look alike come from different tables or passages of the source.

Assays:
Assay type in all cases: cell-based
[1] = target: kinases in BCWM.1 cells (Homo sapiens, UniProt Q9UHD2); conditions: TBK1; Lys1; 1 μM, 90 min; GF
Description: (§1) The cells were harvested and lysed. […] Bound kinases were identified and quantitated by ACTIVX as described in Patricelli et al., Biochemistry, 2007, 46(2): 350-358. The compounds were tested in duplicates against duplicate or quadruplicate control samples.

[2] = target: kinases in BCWM.1 cells (Homo sapiens, UniProt Q9UKE5); conditions: ZC2/TNIK; Lys1; 1 μM, 90 min; GF
Description: as §1

[3] = tested on: kinases in BCWM.1 cells; conditions: 1 μM, 90 min, GF
Description: as §1

[4] = target: kinases in BCWM.1 cells (Homo sapiens, UniProt Q86UE8); conditions: TLK2; Lys2; 1 μM, 90 min; GF
Description: as §1

[5] = target: kinases in BCWM.1 cells (Homo sapiens, UniProt O75385); conditions: ULK1; Lys2; 1 μM, 90 min; GF
Description: as §1

[6] = target: kinases in BCWM.1 cells (Homo sapiens, UniProt Q16512); conditions: PKN1; Lys1; 1 μM, 90 min; GF
Description: as §1

[7] = target: kinases in BCWM.1 cells (Homo sapiens, UniProt Q86Y07); conditions: VRK2; Lys2; 1 μM, 90 min; GF
Description: as §1

[8] = target: kinases in BCWM.1 cells (Homo sapiens, UniProt Q9UBS0); conditions: p70S6Kb; Lys2; 1 μM, 90 min; GF
Description: as §1

[9] = target: kinases in BCWM.1 cells (Homo sapiens, UniProt P19525); conditions: PKR; Lys2; 1 μM, 90 min; GF
Description: as §1

[10] = target: kinases in BCWM.1 cells (Homo sapiens, UniProt Q6PHR2); conditions: ULK3; Lys2; 1 μM, 90 min; GF
Description: as §1

[11] = target: kinases in BCWM.1 cells (Homo sapiens, UniProt P48426); conditions: PIP4K2A; ATP; 1 μM, 90 min; GF
Description: as §1

[12] = target: kinases in BCWM.1 cells (Homo sapiens, UniProt Q9BYT3); conditions: STK33; Lys2; 1 μM, 90 min; GF
Description: as §1

[13] = target: kinases in BCWM.1 cells (Homo sapiens, UniProt O00329); conditions: PIK3CD; ATP; 1 μM, 90 min; GF
Description: as §1

[14] = target: kinases in BCWM.1 cells (Homo sapiens, UniProt Q58A45); conditions: PAN3; Protein Kinase Domain; 1 μM, 90 min; GF
Description: as §1

[15] = target: kinases in BCWM.1 cells (Homo sapiens, UniProt O95747); conditions: OSR1; Lys2; 1 μM, 90 min; GF
Description: as §1

[16] = target: kinases in BCWM.1 cells (Homo sapiens, UniProt O95819); conditions: ZC1/HGK; Lys1; 1 μM, 90 min; GF
Description: as §1

[17] = target: kinases in BCWM.1 cells (Homo sapiens, UniProt Q14289); conditions: PYK2; Activation Loop; 1 μM, 90 min; GF
Description: as §1

[18] = target: kinases in BCWM.1 cells (Homo sapiens, UniProt Q9NYL2); conditions: ZAK; Lys1; 1 μM, 90 min; GF
Description: as §1

[19] = target: kinases in BCWM.1 cells (Homo sapiens, UniProt Q8TBX8); conditions: PIP4K2C; ATP; 1 μM, 90 min; GF
Description: as §1

[20] = target: kinases in BCWM.1 cells (Homo sapiens, UniProt Q9NRH2); conditions: SNRK; Lys2; 1 μM, 90 min; GF
Description: as §1

[21] = target: kinases in BCWM.1 cells (Homo sapiens, UniProt Q8NEB9); conditions: PIK3C3; ATP; 1 μM, 90 min; GF
Description: as §1

[22] = target: kinases in BCWM.1 cells (Homo sapiens, UniProt Q16816); conditions: PHKg1; Protein Kinase Domain; 1 μM, 90 min; GF
Description: as §1

[23] = target: kinases in BCWM.1 cells (Homo sapiens, UniProt Q8TDX7); conditions: NEK7; Lys1; 1 μM, 90 min; GF
Description: as §1

[24] = target: kinases in BCWM.1 cells (Homo sapiens, UniProt Q9UL54); conditions: TAO2; Lys2; 1 μM, 90 min; GF
Description: as §1

[25] = target: kinases in BCWM.1 cells (Homo sapiens, UniProt Q9UBE8); conditions: NLK; Lys2; 1 μM, 90 min; GF
Description: as §1

[26] = target: kinases in BCWM.1 cells (Homo sapiens, UniProt Q96S38); conditions: RSKL1; ATP; 1 μM, 90 min; GF
Description: as §1

Chain of kinases in BCWM.1 cells (Homo sapiens, UniProt Q16512) (Q16512 2-942 limits assumed): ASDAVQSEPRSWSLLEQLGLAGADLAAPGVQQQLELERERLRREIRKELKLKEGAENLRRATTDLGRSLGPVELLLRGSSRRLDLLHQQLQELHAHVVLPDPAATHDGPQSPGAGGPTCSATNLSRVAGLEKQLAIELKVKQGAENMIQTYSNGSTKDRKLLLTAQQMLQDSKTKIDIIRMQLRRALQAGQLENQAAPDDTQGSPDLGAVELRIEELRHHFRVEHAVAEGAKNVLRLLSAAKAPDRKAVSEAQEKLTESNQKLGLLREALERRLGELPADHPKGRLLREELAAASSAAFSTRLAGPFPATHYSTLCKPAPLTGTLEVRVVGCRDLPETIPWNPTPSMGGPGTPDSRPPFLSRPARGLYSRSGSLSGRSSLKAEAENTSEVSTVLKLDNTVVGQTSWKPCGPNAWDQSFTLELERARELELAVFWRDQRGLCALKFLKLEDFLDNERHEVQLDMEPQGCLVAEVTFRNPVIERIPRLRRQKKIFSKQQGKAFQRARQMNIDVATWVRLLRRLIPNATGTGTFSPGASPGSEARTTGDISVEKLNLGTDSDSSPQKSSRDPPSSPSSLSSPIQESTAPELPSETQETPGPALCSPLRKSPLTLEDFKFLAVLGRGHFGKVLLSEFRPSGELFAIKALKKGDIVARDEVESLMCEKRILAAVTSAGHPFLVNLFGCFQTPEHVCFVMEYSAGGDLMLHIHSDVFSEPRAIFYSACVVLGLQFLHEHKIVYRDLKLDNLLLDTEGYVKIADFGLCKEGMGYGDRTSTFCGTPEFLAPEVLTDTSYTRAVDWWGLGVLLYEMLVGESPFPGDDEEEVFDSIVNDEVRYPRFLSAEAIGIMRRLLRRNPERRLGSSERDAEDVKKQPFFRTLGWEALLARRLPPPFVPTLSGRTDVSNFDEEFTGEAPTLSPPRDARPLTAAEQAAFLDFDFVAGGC
Chain of kinases in BCWM.1 cells (Homo sapiens, UniProt O95747) (O95747 2-527 limits assumed): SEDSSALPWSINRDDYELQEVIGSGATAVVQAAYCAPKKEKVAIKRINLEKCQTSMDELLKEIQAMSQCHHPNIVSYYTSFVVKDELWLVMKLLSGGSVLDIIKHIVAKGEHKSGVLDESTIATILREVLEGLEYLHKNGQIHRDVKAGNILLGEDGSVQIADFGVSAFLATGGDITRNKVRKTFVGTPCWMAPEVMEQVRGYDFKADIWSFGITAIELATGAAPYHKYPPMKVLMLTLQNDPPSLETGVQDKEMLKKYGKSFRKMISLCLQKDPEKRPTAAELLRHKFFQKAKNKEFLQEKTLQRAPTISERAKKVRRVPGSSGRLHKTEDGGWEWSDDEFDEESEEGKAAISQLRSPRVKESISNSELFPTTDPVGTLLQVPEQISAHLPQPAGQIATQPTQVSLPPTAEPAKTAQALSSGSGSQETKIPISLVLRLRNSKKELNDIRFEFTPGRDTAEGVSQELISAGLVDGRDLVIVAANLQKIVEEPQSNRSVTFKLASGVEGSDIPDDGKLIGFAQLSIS
Chain of kinases in BCWM.1 cells (Homo sapiens, UniProt P19525) (P19525 2-551 limits assumed): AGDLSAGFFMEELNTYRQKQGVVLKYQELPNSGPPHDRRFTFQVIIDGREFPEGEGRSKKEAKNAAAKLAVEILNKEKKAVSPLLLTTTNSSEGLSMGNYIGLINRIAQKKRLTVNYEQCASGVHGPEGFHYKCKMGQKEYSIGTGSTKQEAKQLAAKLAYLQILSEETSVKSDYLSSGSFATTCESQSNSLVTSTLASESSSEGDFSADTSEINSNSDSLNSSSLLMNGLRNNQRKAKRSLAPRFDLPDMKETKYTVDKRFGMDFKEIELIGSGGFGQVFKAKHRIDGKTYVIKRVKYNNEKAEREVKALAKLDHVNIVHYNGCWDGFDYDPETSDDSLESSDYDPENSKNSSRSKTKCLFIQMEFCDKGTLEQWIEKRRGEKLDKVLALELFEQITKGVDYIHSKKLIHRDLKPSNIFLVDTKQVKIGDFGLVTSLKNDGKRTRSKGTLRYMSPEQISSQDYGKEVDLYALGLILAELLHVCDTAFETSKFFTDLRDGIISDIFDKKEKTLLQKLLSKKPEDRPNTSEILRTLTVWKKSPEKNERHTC
Chain of kinases in BCWM.1 cells (Homo sapiens, UniProt Q9NYL2) (Q9NYL2 2-800 limits assumed): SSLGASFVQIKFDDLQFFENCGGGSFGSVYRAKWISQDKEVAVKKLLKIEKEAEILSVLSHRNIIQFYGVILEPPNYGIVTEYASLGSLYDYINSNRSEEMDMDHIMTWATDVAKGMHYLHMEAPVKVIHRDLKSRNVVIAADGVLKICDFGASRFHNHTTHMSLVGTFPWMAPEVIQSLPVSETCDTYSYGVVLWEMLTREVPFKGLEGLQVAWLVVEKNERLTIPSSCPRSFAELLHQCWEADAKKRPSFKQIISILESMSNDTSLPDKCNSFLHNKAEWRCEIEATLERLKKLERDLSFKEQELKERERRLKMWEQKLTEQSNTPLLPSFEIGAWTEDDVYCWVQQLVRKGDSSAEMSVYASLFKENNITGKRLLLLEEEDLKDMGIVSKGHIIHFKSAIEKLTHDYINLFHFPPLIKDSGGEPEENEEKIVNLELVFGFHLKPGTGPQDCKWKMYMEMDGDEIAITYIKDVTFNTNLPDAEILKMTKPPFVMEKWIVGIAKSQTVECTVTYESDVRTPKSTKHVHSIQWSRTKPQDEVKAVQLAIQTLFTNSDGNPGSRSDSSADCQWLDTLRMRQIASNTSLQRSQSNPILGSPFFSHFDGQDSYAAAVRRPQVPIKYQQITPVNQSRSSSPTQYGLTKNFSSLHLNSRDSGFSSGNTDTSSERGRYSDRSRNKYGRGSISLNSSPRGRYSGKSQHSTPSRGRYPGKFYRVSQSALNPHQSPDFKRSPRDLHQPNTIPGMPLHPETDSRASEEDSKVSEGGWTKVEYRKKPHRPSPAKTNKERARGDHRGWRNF
Chain of kinases in BCWM.1 cells (Homo sapiens, UniProt O95819) (O95819 2-1239 limits assumed): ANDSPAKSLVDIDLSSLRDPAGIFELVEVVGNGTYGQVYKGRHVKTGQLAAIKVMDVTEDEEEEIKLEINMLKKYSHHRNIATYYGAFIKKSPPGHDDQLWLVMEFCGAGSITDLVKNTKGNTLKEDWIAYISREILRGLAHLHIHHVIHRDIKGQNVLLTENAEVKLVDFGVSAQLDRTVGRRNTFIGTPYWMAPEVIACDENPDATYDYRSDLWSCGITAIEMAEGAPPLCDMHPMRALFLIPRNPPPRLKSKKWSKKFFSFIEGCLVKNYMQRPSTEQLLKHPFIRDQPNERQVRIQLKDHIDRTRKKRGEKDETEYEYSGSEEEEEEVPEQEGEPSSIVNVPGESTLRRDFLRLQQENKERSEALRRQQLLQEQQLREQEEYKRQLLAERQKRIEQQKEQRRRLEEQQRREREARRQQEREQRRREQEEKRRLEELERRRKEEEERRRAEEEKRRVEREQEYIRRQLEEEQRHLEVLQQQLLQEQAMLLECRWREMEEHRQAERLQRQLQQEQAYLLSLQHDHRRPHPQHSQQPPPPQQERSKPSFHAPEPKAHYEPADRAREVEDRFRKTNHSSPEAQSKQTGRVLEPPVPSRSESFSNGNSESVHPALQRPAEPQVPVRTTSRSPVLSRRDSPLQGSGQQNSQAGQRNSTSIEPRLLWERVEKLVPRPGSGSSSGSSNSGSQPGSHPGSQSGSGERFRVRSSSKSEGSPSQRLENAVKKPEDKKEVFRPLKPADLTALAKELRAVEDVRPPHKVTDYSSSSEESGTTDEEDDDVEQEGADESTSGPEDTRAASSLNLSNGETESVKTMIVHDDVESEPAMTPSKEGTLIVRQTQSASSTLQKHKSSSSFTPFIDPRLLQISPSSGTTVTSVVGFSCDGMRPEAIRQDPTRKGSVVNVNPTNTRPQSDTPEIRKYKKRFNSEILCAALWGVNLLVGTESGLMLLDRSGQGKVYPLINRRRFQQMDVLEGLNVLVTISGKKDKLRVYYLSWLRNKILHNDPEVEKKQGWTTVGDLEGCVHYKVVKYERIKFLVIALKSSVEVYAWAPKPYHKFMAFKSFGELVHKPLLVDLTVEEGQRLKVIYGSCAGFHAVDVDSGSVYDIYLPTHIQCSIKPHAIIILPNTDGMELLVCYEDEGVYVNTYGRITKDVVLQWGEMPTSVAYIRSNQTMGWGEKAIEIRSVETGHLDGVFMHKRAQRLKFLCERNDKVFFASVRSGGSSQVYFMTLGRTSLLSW
Chain of kinases in BCWM.1 cells (Homo sapiens, UniProt P48426) (P48426 2-406 limits assumed): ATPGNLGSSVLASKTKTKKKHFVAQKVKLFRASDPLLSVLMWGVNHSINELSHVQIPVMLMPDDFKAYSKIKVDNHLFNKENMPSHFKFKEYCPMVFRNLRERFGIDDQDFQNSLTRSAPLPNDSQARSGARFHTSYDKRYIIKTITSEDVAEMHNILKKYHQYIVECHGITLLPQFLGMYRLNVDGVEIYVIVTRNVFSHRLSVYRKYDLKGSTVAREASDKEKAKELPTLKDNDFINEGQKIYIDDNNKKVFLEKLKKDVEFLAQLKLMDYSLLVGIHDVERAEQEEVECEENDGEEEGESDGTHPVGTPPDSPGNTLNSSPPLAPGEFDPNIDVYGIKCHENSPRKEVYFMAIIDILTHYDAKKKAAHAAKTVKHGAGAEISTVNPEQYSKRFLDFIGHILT
Chain of kinases in BCWM.1 cells (Homo sapiens, UniProt Q8TBX8) (Q8TBX8 2-421 limits assumed): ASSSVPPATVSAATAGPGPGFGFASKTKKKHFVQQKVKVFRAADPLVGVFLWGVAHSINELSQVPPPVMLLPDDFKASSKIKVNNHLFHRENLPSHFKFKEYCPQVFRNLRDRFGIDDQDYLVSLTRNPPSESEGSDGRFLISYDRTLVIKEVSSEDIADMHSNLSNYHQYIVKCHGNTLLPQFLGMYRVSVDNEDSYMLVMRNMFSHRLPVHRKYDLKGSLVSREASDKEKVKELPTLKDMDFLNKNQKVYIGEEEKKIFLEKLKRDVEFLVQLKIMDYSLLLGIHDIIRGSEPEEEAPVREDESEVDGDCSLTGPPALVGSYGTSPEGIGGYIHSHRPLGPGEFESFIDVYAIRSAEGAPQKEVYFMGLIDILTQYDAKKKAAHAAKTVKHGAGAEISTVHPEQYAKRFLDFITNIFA

Structure (SMILES): C=CC(=O)N1CC[C@H](Nc2nccc(Nc3ncc(C(=O)Nc4c(C)cccc4C)s3)n2)C1 [Example I-3]
- % change of MS signal compared to control sample [1]: −1.6%
- % change of MS signal compared to control sample [2]: 32.9%
- % change of MS signal compared to control sample ([3]; MST4, YSK1, Lys2): 15.5%
- % change of MS signal compared to control sample ([3]; NEK6, NEK7, Lys2): −13.1%
- % change of MS signal compared to control sample ([3]; PCTAIRE2, PCTAIRE3, Lys1): −12%
- % change of MS signal compared to control sample ([3]; PI4KA, PI4KAP2, ATP): 12%
- % change of MS signal compared to control sample ([3]; PKACa, PKCb, Lys2): 3.3%
- % change of MS signal compared to control sample ([3]; ROCK1, ROCK2, Lys2): 12.5%
- % change of MS signal compared to control sample ([3]; RSK1 domain1, RSK2 domain1, RSK3 domain1, Lys2): −7.3%
- % change of MS signal compared to control sample ([3]; SRPK1, SRPK2, Lys1): 22.3%
- % change of MS signal compared to control sample ([3]; TAO1, TAO3, Lys2): 14.3%
- % change of MS signal compared to control sample ([3]; Wnk1, Wnk2, Wnk3, Lys2): −1.2%
- % change of MS signal compared to control sample ([3]; Wnk1, Wnk2, ATP Loop): 6.8%
- % change of MS signal compared to control sample ([3]; ZC1/HGK, ZC2/TNIK, ZC3/MINK, Lys2): −0.1%
- % change of MS signal compared to control sample ([3]; p38d, p38g, Lys2): −0.7%
- % change of MS signal compared to control sample [4]: 4.7%
- % change of MS signal compared to control sample [5]: −8.2%
- % change of MS signal compared to control sample [6]: −29.4%
- % change of MS signal compared to control sample [7]: 5.7%
- % change of MS signal compared to control sample [8]: 6.8%
- % change of MS signal compared to control sample [9]: −17.6%
- % change of MS signal compared to control sample [10]: −47.2%
- % change of MS signal compared to control sample [11]: −15.2%
- % change of MS signal compared to control sample [12]: 11.8%
- % change of MS signal compared to control sample [13]: −17.2%
- % change of MS signal compared to control sample [14]: 2.5%
- % change of MS signal compared to control sample [15]: 4%
- % change of MS signal compared to control sample [16]: −16.8%
- % change of MS signal compared to control sample [17]: −12.1%
- % change of MS signal compared to control sample [18]: 21.2%
- % change of MS signal compared to control sample [19]: 27%
- % change of MS signal compared to control sample [20]: 40.2%
- % change of MS signal compared to control sample [21]: −0.8%
- % change of MS signal compared to control sample [22]: −38.8%
- % change of MS signal compared to control sample [23]: −14.7%
- % change of MS signal compared to control sample [24]: 8%
- % change of MS signal compared to control sample [25]: 85.9%
- % change of MS signal compared to control sample [26]: −25.8%
